From ChEMBL document CHEMBL5226379, “Hypouricemic Actions of the Pericarp of Mangosteen in Vitro and in Vivo” (J Nat Prod, 2023)
Calls of active or inactive are those of the source. The rule behind the calls is not given here.

Key:
[1] = test system: Rattus norvegicus; assay: (§1) Anti-hyperuricemic activity against potassium oxonate-induced hyperuricemic Sprague-Dawley rat model assessed as urinary urate at 1 mg/kg, po pre-administered via gavage twice daily for 5 times followed by potassium oxonate injection for 1 hrs prior to last dose and measured after 3 hrs; assay type: functional; details: time 123 hrs
[2] = test system: Rattus norvegicus; assay: Anti-hyperuricemic activity against potassium oxonate-induced hyperuricemic Sprague-Dawley rat model assessed as urinary creatinine level at 1 mg/kg, po pre-administered via gavage twice daily for 5 times followed by potassium oxonate injection for 1 hrs prior to last dose and measured after 3 hrs; assay type: functional; details: time 123 hrs
[3] = test system: Rattus norvegicus; assay: as §1, with “excretion of” for “urinary”, “urate per volume of glomerular filtration measured per body surface area of 0.0311 m2” for “urate”; assay type: functional; details: time 123 hrs
[4] = test system: Rattus norvegicus; assay: Anti-hyperuricemic activity against potassium oxonate-induced hyperuricemic Sprague-Dawley rat model assessed as serum urate level at 4 mg/kg, po pre-administered via gavage twice daily for 5 times followed by potassium oxonate injection for 1 hrs prior to last dose and measured after 3 hrs; assay type: functional; details: time 123 hrs
[5] = test system: Rattus norvegicus; assay: (§2) Anti-hyperuricemic activity against potassium oxonate-induced hyperuricemic Sprague-Dawley rat model assessed as urinary urate level at 2 mg/kg, po pre-administered via gavage twice daily for 5 times followed by potassium oxonate injection for 1 hrs prior to last dose and measured after 3 hrs; assay type: functional; details: time 123 hrs
[6] = test system: Rattus norvegicus; assay: Anti-hyperuricemic activity against potassium oxonate-induced hyperuricemic Sprague-Dawley rat model assessed as serum creatinine level at 2 mg/kg, po pre-administered via gavage twice daily for 5 times followed by potassium oxonate injection for 1 hrs prior to last dose and measured after 3 hrs; assay type: functional; details: time 123 hrs
[7] = test system: Rattus norvegicus; assay: (§3) Anti-hyperuricemic activity against potassium oxonate-induced hyperuricemic Sprague-Dawley rat model assessed as urinary urate at 4 mg/kg, po pre-administered via gavage twice daily for 5 times followed by potassium oxonate injection for 1 hrs prior to last dose and measured after 3 hrs; assay type: functional; details: time 123 hrs
[8] = test system: Rattus norvegicus; assay: Anti-hyperuricemic activity against potassium oxonate-induced hyperuricemic Sprague-Dawley rat model assessed as serum urate level at 1 mg/kg, po pre-administered via gavage twice daily for 5 times followed by potassium oxonate injection for 1 hrs prior to last dose and measured after 3 hrs; assay type: functional; details: time 123 hrs
[9] = Acute toxicity in mouse assessed as behavioral changes at 50 g/Kg, IG measured for 14 days; details: in vivo, po, 50000 mg/kg, 336 h, time 14 day
[10] = organism: Homo sapiens; assay: Inhibition of uricase (unknown origin) using uric acid as substrate at 37.5 mg/L preincubated with compounds for 15 mins followed by uric acid addition
[11] = organism: Homo sapiens; assay: Inhibition of uricase (unknown origin) using uric acid as substrate at 75 mg/L preincubated with compounds for 15 mins followed by uric acid addition
[12] = test system: Mus musculus; assay: Anti-hyperuricemic activity against uric acid-induced hyperuricemic Kunming mouse model assessed as decrease in URAT1 protein level in kidney at 2 to 8 mg/kg, pre-administered with uric acid for 3.5 days followed by compound administration via gavage twice a day for seven times by ELISA analysis; assay type: functional, organism-based; details: dose 2-8 mg/kg, time 7.0 day
[13] = test system: Mus musculus; assay: Anti-hyperuricemic activity against uric acid-induced hyperuricemic Kunming mouse model assessed as decrease in GLUT9 protein level in kidney at 2 to 8 mg/kg, pre-administered with uric acid for 3.5 days followed by compound administration via gavage twice a day for seven times by ELISA analysis; assay type: functional, organism-based; details: dose 2-8 mg/kg, time 7.0 day
[14] = test system: Mus musculus; assay: Anti-hyperouricemic activity in uric acid-induced hyperuricemic Kunming mouse model assessed as decrease in serum uric acid level at 4 mg/kg, IG pre-administered with uric acid for 30 mins followed by compound treatment and measured after 2 hrs by phosphotungstic acid method; assay type: functional, organism-based
[15] = test system: Rattus norvegicus; assay: as §2, with “assessed as increase in urinary urate” for “assessed as urinary urate”, “3 hrs relative to control” for “3 hrs”; assay type: functional; details: time 123 hrs
[16] = test system: Rattus norvegicus; assay: as §3, with “glomerular load of” for “urinary”, “urate measured per body surface area of 0.0311 m2” for “urate”; assay type: functional; details: time 123 hrs
[17] = test system: Rattus norvegicus; assay: Anti-hyperuricemic activity against potassium oxonate-induced hyperuricemic Sprague-Dawley rat model assessed as serum urea nitrogen level at 1 mg/kg, po pre-administered via gavage twice daily for 5 times followed by potassium oxonate injection for 1 hrs prior to last dose and measured after 3 hrs; assay type: functional; details: time 123 hrs
[18] = test system: Rattus norvegicus; assay: as §3, with “clearance of” for “urinary”, “urate measured per body surface area of 0.0311 m2” for “urate”; assay type: functional; details: time 123 hrs
[19] = test system: Rattus norvegicus; assay: as §3, with “excretion of” for “urinary”, “urate per volume of glomerular filtration measured per body surface area of 0.0311 m2” for “urate”; assay type: functional; details: time 123 hrs
[20] = target: T1, Solute carrier family 22 member 12 (Homo sapiens, UniProt Q96S37); assay: Inhibition of human URAT1-mediated [8-14C]uric acid uptake expressed in HEK293 cells using [8-14C]uric acid as substrate by liquid scintillation counter analysis; assay type: cell-based
T1 sequence (Q96S37 whole entry): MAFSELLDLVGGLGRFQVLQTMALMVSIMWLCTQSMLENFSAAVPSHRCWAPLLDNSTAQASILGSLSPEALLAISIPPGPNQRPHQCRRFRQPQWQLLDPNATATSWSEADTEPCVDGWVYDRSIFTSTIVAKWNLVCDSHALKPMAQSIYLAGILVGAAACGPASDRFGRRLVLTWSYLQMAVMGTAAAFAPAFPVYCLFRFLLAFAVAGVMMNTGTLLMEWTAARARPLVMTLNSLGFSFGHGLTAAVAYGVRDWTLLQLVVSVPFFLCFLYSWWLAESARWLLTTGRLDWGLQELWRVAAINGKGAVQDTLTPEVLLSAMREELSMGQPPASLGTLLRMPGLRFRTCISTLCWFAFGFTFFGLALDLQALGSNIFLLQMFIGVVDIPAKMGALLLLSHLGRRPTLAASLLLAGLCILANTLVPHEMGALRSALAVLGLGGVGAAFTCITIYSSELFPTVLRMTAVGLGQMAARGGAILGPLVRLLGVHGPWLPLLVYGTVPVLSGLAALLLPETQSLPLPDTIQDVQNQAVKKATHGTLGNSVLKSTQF

[21] = test system: Mus musculus; assay: Anti-hyperouricemic activity in uric acid-induced hyperuricemic Kunming mouse model assessed as decrease in serum uric acid level at 2 to 8 mg/kg, IG pre-administered via gavage twice daily for 5 times followed by uric acid injection for 30 mins prior to last dose by phosphotungstic acid method; assay type: functional, organism-based; details: dose 2-8 mg/kg, time 5.0 day
[22] = test system: Rattus norvegicus; assay: Anti-hyperuricemic activity against potassium oxonate-induced hyperuricemic Sprague-Dawley rat model assessed as serum creatinine level at 4 mg/kg, po pre-administered via gavage twice daily for 5 times followed by potassium oxonate injection for 1 hrs prior to last dose and measured after 3 hrs; assay type: functional; details: time 123 hrs
[23] = test system: Rattus norvegicus; assay: Anti-hyperuricemic activity against potassium oxonate-induced hyperuricemic Sprague-Dawley rat model assessed as ratio of urinary urate to urinary creatinine at 1 mg/kg, po pre-administered via gavage twice daily for 5 times followed by potassium oxonate injection for 1 hrs prior to last dose and measured after 3 hrs; assay type: functional; details: time 123 hrs
[24] = test system: Rattus norvegicus; assay: as §2, with “glomerular load of” for “urinary”, “measured per body surface area of 0.0311 m2” for “level”; assay type: functional; details: time 123 hrs
[25] = target: Xanthine dehydrogenase/oxidase (Homo sapiens, UniProt P47989); assay: Inhibition of XOD (unknown origin) using xanthine as substrate assessed as inhibition of uric acid generation at 150 mg/L preincubated for 15 mins followed by xanthine addition and measured by spectrophotometric analysis relative to control
[26] = organism: Homo sapiens; assay: Inhibition of uricase (unknown origin) using uric acid as substrate at 112.5 mg/L preincubated with compounds for 15 mins followed by uric acid addition

Chain of Xanthine dehydrogenase/oxidase (P47989 whole entry): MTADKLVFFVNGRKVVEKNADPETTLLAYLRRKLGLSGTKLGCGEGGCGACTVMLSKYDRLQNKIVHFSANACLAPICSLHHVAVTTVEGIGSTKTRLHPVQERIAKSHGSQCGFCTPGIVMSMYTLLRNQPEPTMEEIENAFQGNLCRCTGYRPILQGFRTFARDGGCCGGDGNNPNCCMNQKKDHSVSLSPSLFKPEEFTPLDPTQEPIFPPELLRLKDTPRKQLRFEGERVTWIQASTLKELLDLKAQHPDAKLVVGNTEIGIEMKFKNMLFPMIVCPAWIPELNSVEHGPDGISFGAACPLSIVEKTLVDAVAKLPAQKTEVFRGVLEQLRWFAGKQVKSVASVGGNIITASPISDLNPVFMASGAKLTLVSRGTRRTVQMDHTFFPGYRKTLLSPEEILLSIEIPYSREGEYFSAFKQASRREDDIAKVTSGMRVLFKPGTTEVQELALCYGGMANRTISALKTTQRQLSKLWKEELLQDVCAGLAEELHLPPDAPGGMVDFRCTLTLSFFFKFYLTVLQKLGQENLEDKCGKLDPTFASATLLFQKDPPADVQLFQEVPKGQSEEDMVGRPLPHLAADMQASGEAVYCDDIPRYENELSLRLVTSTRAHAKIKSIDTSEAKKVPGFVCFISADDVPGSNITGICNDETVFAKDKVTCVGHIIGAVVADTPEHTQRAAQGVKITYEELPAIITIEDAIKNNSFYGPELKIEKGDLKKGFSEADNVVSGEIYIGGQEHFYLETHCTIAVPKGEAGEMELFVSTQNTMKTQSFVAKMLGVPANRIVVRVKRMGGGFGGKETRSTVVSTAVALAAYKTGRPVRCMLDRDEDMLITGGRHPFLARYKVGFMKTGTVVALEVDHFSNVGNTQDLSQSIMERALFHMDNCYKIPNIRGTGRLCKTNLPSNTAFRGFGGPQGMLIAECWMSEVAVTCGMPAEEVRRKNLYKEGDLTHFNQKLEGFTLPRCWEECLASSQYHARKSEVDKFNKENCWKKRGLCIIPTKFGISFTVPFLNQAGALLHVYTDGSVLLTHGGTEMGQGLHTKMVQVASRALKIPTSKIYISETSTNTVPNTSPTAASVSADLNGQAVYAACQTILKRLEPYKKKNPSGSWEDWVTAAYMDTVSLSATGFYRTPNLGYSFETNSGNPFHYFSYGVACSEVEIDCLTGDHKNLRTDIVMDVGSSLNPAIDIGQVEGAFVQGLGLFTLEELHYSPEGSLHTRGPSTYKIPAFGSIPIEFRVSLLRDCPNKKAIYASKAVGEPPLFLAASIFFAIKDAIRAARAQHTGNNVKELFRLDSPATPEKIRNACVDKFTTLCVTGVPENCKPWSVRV

Question: What does the source list for `COc1c(O)cc2oc3cc(O)c(CC=C(C)C)c(O)c3c(=O)c2c1CC=C(C)C` [MANGOSTIN]?
Answer: Activity [1]: 501 µmol; Activity [2]: 0.9 mmol/L; Activity [3]: 4.9 µmol/L; Activity [4]: 202 µmol/L; Activity [5]: 2.6 mmol/L; Activity [6]: 55.2 µmol/L; Activity [7]: 476 µmol; Activity [8]: 220 µmol/L; Activity [9]: Non-Toxic; inhibition [10]: 1.4%; inhibition [11]: 2.6%; Activity [12]: inactive; Activity [13]: Active; Activity [14]: Active; Activity [15]: 42%; Activity [16]: 3.7 µmol/min; Activity [17]: 10.7 mmol/L; Activity [18]: 14 mL/min; Activity [19]: 5.3 µmol/L; IC50 [20]: 58.9 µM; Activity [21]: Active; Activity [22]: 55 µmol/L; Ratio [23]: 2.7; Activity [24]: 3.6 µmol/min; inhibition at 150 µg/mL [25]: 1.4%; inhibition [26]: 6.3%
